Experimental data published in ChEMBL document CHEMBL3774337, “In vivo phase II-enzymes inducers, as potential chemopreventive agents, based on the chalcone and furoxan skeletons” (Bioorg Med Chem, 2016).
The source made the active and inactive calls. No cut-off for these calls is given here.

Tests used:
Rattus norvegicus [1] = assay: Toxicity in Wistar rat assessed as change in body weight at 15 mg/kg/day, po for two weeks; assay type: organism-based; conditions: in vivo
[2] = Toxicity in Wistar rat assessed as survival at 15 mg/kg/day, po for two weeks; assay type: organism-based; conditions: in vivo
Rattus norvegicus [3] = assay: Toxicity in Wistar rat assessed as change in behaviors at 15 mg/kg/day, po for two weeks; assay type: organism-based; conditions: in vivo
Rattus norvegicus [4] = assay: Induction of quinone reductase activity in cytosolic fraction of Wistar rat liver at 15 mg/kg/day, po for two weeks using 2,6-DCIP as substrate measured for 1 min relative to control; assay type: functional
Rattus norvegicus [5] = assay: Induction of glutathione S-transferase activity in cytosolic fraction of Wistar rat liver at 15 mg/kg/day, po for two weeks using CDNB as substrate measured for 1 min relative to control; assay type: functional
Mus musculus [6] = species: Mus musculus; assay: Induction of quinone reductase specific activity in mouse Hepa1c1c7 cells using 2,6-DCIP as substrate at 10 uM measured for 1 min relative to control; assay type: cell-based
[7] = Chemoprotective index, ratio of IC50 for mouse Hepa1c1c7 cells to CD for quinone reductase activity in mouse Hepa1c1c7 cells
[8] = Cytotoxicity against mouse Hepa1c1c7 cells after 48 hrs by SRB assay; assay type: cell-based; conditions: Hepa-1c1c7, 48 h
Mus musculus [9] = species: Mus musculus; assay: Induction of quinone reductase activity in mouse mutant BpRc1 cells using 2,6-DCIP as substrate measured for 1 min; assay type: cell-based
Mus musculus [10] = species: Mus musculus; assay: Ratio of quinone reductase specific activity in mouse Hepa1c1c7 cells to quinone reductase specific activity in mouse mutant BpRc1 cells; assay type: cell-based
Mus musculus [11] = species: Mus musculus; assay: Induction of quinone reductase specific activity in mouse Hepa1c1c7 cells assessed as concentration required to double enzyme specific activity using 2,6-DCIP as substrate measured for 1 min; assay type: cell-based
[12] = Chemoprotective index, ratio of IC50 for mouse mutant BpRc1 cells to CD for quinone reductase activity in mouse mutant BpRc1 cells
Mus musculus [13] = species: Mus musculus; assay: Ratio of induction of quinone reductase specific activity in mouse mutant BpRc1 cells to mouse Hepa1c1c7 cells; assay type: cell-based
[14] = Cytotoxicity against mouse mutant BpRc1 cells after 48 hrs by SRB assay; assay type: cell-based; conditions: BPrc1, 48 h
Mus musculus [15] = species: Mus musculus; assay: Induction of quinone reductase specific activity in mouse mutant BpRc1 cells expressing defective translocator receptor Arnt using 2,6-DCIP as substrate at 10 uM measured for 1 min relative to control; assay type: cell-based
Rattus norvegicus [16] = assay: Induction of CYP450 activity in microsomal fraction of Wistar rat liver at 15 mg/kg/day, po for two weeks using 7-ethoxyresorufine as substrate measured for 5 mins relative to control; assay type: ADME, organism-based; conditions: in vivo
MCF7 = assay: Cytotoxicity against human MCF7 cells at 100 uM after 24 hrs by SRB assay; assay type: functional, cell-based
HT-29 = assay: Cytotoxicity against human HT-29 cells at 100 uM after 24 hrs by SRB assay; assay type: functional, cell-based
Rattus norvegicus [17] = assay: Induction of quinone reductase activity in cytosolic fraction of Wistar rat colon at 15 mg/kg/day, po for two weeks using 2,6-DCIP as substrate at 10 uM measured for 1 min relative to control; assay type: functional
Rattus norvegicus [18] = assay: Induction of glutathione S-transferase activity in cytosolic fraction of Wistar rat colon at 15 mg/kg/day, po for two weeks using CDNB as substrate measured for 1 min relative to control; assay type: functional
Salmonella typhimurium [19] = assay: Mutagenicity in Salmonella typhimurium TA98 assessed as revertant colonies at 0.5 to 40 ug/plate by Ames test in absence of mouse liver S9 fraction; assay type: toxicity, organism-based; conditions: salmonella enterica subsp. enterica serovar typhimurium
[20] = target: T1, Nuclear factor erythroid 2-related factor 2 (Mus musculus) (UniProt Q60795); assay: Induction of Nrf2 nuclear translocation in mouse Hepa1c1c7 cells assessed as protein accumulation in nucleus at 20 uM by DAPI staining based immunofluorescence assay; assay type: cell-based
T1 sequence (whole entry): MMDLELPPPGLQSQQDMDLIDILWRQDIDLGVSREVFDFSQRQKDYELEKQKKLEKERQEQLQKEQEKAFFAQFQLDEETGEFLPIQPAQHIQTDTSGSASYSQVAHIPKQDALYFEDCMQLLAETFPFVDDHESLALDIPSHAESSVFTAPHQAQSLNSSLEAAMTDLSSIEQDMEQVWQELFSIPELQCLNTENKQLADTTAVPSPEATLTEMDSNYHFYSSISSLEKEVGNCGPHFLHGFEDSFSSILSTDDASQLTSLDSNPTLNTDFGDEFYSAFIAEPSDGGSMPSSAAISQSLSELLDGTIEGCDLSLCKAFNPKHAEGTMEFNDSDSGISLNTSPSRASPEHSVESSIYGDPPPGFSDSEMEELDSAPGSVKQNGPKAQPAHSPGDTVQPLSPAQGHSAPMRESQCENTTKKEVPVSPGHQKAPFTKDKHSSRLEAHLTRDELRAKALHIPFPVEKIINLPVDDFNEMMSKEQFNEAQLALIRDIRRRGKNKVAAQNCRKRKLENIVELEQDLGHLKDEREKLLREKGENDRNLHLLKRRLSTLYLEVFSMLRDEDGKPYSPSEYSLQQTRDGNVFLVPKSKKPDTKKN

Salmonella typhimurium [21] = assay: Mutagenicity in Salmonella typhimurium TA98 assessed as revertant colonies at 0.5 to 40 ug/plate by Ames test in presence of mouse liver S9 fraction; assay type: toxicity, organism-based; conditions: salmonella enterica subsp. enterica serovar typhimurium
Rattus norvegicus [22] = assay: Induction of CYP450 activity in microsomal fraction of Wistar rat colon at 15 mg/kg/day, po for two weeks using 7-ethoxyresorufine as substrate measured for 5 mins; assay type: ADME, organism-based; conditions: in vivo
Salmonella typhimurium [23] = assay: Mutagenicity in Salmonella typhimurium TA98 assessed as revertant colonies at 6 to 500 ug/plate by Ames test in absence of mouse liver S9 fraction; assay type: toxicity, organism-based; conditions: salmonella enterica subsp. enterica serovar typhimurium
Salmonella typhimurium [24] = assay: Mutagenicity in Salmonella typhimurium TA98 assessed as revertant colonies at 6 to 500 ug/plate by Ames test in presence of mouse liver S9 fraction; assay type: toxicity, organism-based; conditions: salmonella enterica subsp. enterica serovar typhimurium
Salmonella typhimurium [25] = assay: Mutagenicity in Salmonella typhimurium TA98 assessed as revertant colonies at 2 to 167 ug/plate by Ames test in presence of mouse liver S9 fraction; assay type: toxicity, organism-based; conditions: salmonella enterica subsp. enterica serovar typhimurium
Salmonella typhimurium [26] = assay: Mutagenicity in Salmonella typhimurium TA98 assessed as revertant colonies at 2 to 167 ug/plate by Ames test in absence of mouse liver S9 fraction; assay type: toxicity, organism-based; conditions: salmonella enterica subsp. enterica serovar typhimurium

Row | Compound | Activity (Rattus norvegicus [1]) | survival at 2 weeks [2] | Activity (Rattus norvegicus [3]) | Activity (Rattus norvegicus [4]) | fold change (FC) (Mus musculus [6]) | Ratio (Mus musculus [10]) | fold change (FC) (Mus musculus [15]) | Activity (MCF7) | Activity (HT-29) | also measured
1 | COc1ccc(/C=C/C(=O)c2ccccc2)cc1 [4-METHOXY CHALCONE] | Non-toxic | 100% | Non-toxic | Active |  |  |  |  |  | 
2 | O=C(/C=C/c1ccccc1)c1ccccc1O [2'-HYDROXYCHALCONE] | Non-toxic | 100% | Non-toxic | Active |  |  |  |  |  | Activity (Rattus norvegicus [5]): Active
3 | O=c1cc(-c2ccc(Br)cc2)oc2ccccc12 |  |  |  |  | 4.45 | 2.99 | 1.49 |  |  | Ratio [7]: 107; IC50 [8]: 85 µM; CD (Mus musculus [9]): 80 µM; CD (Mus musculus [11]): 0.79 µM; Ratio [12]: 1.9; Ratio (Mus musculus [13]): 100; IC50 [14]: 150 µM
4 | O=C(/C=C/c1c(-c2ccccc2)no[n+]1[O-])c1ccccc1O | Non-toxic | 100% | Non-toxic | 80% | 3.01 | 1.65 | 1.82 | Active | Active | Ratio [7]: 5; IC50 [8]: 40 µM; Activity (Rattus norvegicus [16]): 40%; CD (Mus musculus [9]): 12 µM; Activity (Rattus norvegicus [17]): Active; Activity (Rattus norvegicus [5]): 110%; CD (Mus musculus [11]): 8 µM; Ratio [12]: 3.2; Activity (Rattus norvegicus [18]): Active; Activity (Salmonella typhimurium [19]): Non-toxic; Ratio (Mus musculus [13]): 1.5; Activity [20]: Active; IC50 [14]: 38 µM; Activity (Salmonella typhimurium [21]): Non-toxic; Activity (Rattus norvegicus [22]): Active
5 | O=C(/C=C/c1ccc2c(c1)no[n+]2[O-])c1ccc2ccccc2c1 |  |  |  |  | 1.77 | 1.75 | 1.01 | Active | Active | 
6 | Cc1c(/C=C/C(=O)c2ccc3ccccc3c2)no[n+]1[O-] |  |  |  |  | 1.49 | 1.5 | 0.99 | Active | Active | Activity (Salmonella typhimurium [23]): Non-toxic; Activity (Salmonella typhimurium [24]): Non-toxic
7 | O=C(/C=C/c1ccc2c(c1)no[n+]2[O-])c1ccccc1 |  |  |  |  | 1.01 | 0.59 | 1.7 | Active | Active | Activity (Salmonella typhimurium [25]): Non-toxic; Activity (Salmonella typhimurium [26]): Toxic
